# Assay results published in the supplement of paper PMC10307832.
# Compound: COc1cc([C@@H]2c3cc4c(cc3[C@@H](O[C@@H]3O[C@@H]5CO[C@@H](C)O[C@H]5[C@H](O)[C@H]3O)[C@H]3COC(=O)[C@H]23)OCO4)cc(OC)c1O [Etoposide] + Cc1cc(Nc2cc(N3CCN(C)CC3)nc(Sc3ccc(NC(=O)C4CC4)cc3)n2)n[nH]1 [Tozasertib] (partner 0.1 µM)
# Assay: relative viability (nuclei count vs DMSO), 5 days (fraction); higher = more cells survive
# Conditions: first compound 0.01 µM
# Method in brief: (§1)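 Relative viability is defined as nuclei in treated wells over nuclei in vehicle wells. Duplicate plates were run and medians reported. Lung cancer cell lines in 1536-well plates were dosed by pin tool one day after seeding, with one drug or with a fixed anchor-drug dose plus five library-drug doses (not always all listed) in √10 steps, and nuclei were counted after 5 days.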
row,Cell Line,relative viability
1,NCI-H838,0.348
2,NCI-H1650,0.381
3,NCI-H1993,0.634
4,NCI-H2087,0.214
5,PC-14,0.595
6,LCLC-103H,0.427
7,NCI-H596,0.774
8,NCI-H2228,0.287
9,EMC-BAC-2,0.251
10,NCI-H2085,0.783
11,HCC-366,0.0819
12,NCI-H1666,0.551
13,NCI-H647,0.224
14,LK-2,0.207
15,NCI-H2126,0.739
16,NCI-H2342,0.528
17,SK-MES-1,0.877
18,H3255,0.631
19,COR-L23,0.189
20,COR-L 105,0.385
21,LOU-NH91,0.713
22,ChaGo-K-1,0.192
23,NCI-H2170,0.634
24,NCI-H3122,0.441
25,HCC-44,0.759
26,HCC-78,0.375

# Same assay, conditions: first compound 0.03162 µM
row,Cell Line,relative viability
1,NCI-H522,0.554
2,NCI-H1623,0.392
3,NCI-H838,0.295
4,NCI-H1650,0.356
5,NCI-H1993,0.506
6,NCI-H2087,0.248
7,PC-14,0.536
8,LCLC-103H,0.574
9,NCI-H596,1.05
10,NCI-H2228,0.191
11,EMC-BAC-2,0.276
12,NCI-H2085,0.772
13,HCC-366,0.087
14,NCI-H1666,0.592
15,NCI-H647,0.0009
16,LK-2,0.175
17,NCI-H2126,0.854
18,NCI-H2342,0.512
19,SK-MES-1,0.807
20,H3255,0.605
21,COR-L23,0.236
22,COR-L 105,0.345
23,LOU-NH91,0.673
24,ChaGo-K-1,0.212
25,NCI-H2170,0.778
26,NCI-H3122,0.324
27,HCC-44,0.886
28,NCI-H1648,0.359
29,HCC-78,0.488

# Same assay, conditions: first compound 0.1 µM
row,Cell Line,relative viability
1,NCI-H522,0.539
2,NCI-H1623,0.349
3,NCI-H838,0.307
4,NCI-H1650,0.337
5,NCI-H1993,0.576
6,NCI-H2087,0.233
7,PC-14,0.754
8,LCLC-103H,0.459
9,NCI-H596,0.843
10,NCI-H2228,0.247
11,EMC-BAC-2,0.288
12,NCI-H2085,0.762
13,HCC-366,0.0918
14,NCI-H1666,0.485
15,NCI-H647,0.271
16,LK-2,0.18
17,NCI-H2126,0.632
18,NCI-H2342,0.379
19,SK-MES-1,0.833
20,H3255,0.577
21,COR-L23,0.262
22,COR-L 105,0.291
23,LOU-NH91,0.566
24,ChaGo-K-1,0.211
25,NCI-H2170,0.522
26,NCI-H3122,0.262
27,HCC-44,1.11
28,NCI-H1648,0.416
29,HCC-78,0.988

# Same assay, conditions: first compound 0.3162 µM
row,Cell Line,relative viability
1,NCI-H522,0.59
2,NCI-H1623,0.396
3,NCI-H838,0.211
4,NCI-H1650,0.197
5,NCI-H1993,0.495
6,NCI-H2087,0.205
7,PC-14,0.496
8,LCLC-103H,0.526
9,NCI-H596,0.543
10,NCI-H2228,0.169
11,EMC-BAC-2,0.221
12,NCI-H2085,0.727
13,HCC-366,0.0736
14,NCI-H1666,0.356
15,NCI-H647,0.205
16,LK-2,0.21
17,NCI-H2126,0.63
18,NCI-H2342,0.315
19,SK-MES-1,0.389
20,H3255,0.238
21,COR-L23,0.145
22,COR-L 105,0.353
23,LOU-NH91,0.554
24,ChaGo-K-1,0.181
25,NCI-H2170,0.593
26,NCI-H3122,0.281
27,HCC-44,0.57
28,NCI-H1648,0.282
29,HCC-78,0.264

# Same assay, conditions: first compound 1 µM
row,Cell Line,relative viability
1,NCI-H522,0.516
2,NCI-H1623,0.259
3,NCI-H838,0.24
4,NCI-H1650,0.208
5,NCI-H1993,0.55
6,NCI-H2087,0.166
7,PC-14,0.213
8,LCLC-103H,0.35
9,NCI-H596,0.683
10,NCI-H2228,0.117
11,EMC-BAC-2,0.203
12,NCI-H2085,0.478
13,HCC-366,0.0452
14,NCI-H1666,0.372
15,NCI-H647,0.112
16,LK-2,0.205
17,NCI-H2126,0.254
18,NCI-H2342,0.272
19,SK-MES-1,0.222
20,H3255,0.249
21,COR-L23,0.109
22,COR-L 105,0.366
23,LOU-NH91,0.341
24,ChaGo-K-1,0.187
25,NCI-H2170,0.526
26,NCI-H3122,0.159
27,HCC-44,0.317
28,NCI-H1648,0.28
29,HCC-78,0.184

# Compound: CC1=C(N=C(N=C1N)[C@H](CC(=O)N)NC[C@@H](C(=O)N)N)C(=O)N[C@@H]([C@H](C2=CN=CN2)OC3C(C(C(C(O3)CO)O)O)OC4C(C(C(C(O4)CO)O)OC(=O)N)O)C(=O)N[C@H](C)[C@H]([C@H](C)C(=O)N[C@@H]([C@@H](C)O)C(=O)NCCC5=NC(=CS5)C6=NC(=CS6)C(=O)NCCC[S+](C)C)O [Bleomycin] + Cc1nc(Nc2ncc(C(=O)Nc3c(C)cccc3Cl)s2)cc(N2CCN(CCO)CC2)n1 [Dasatinib] (partner 0.075 µM)
# Assay: as above
# Conditions: first compound 0.01 µM; main component drawn
# Method in brief: as §1
row,Cell Line,relative viability
1,NCI-H522,0.791
2,NCI-H1623,0.561
3,NCI-H838,0.267
4,NCI-H1650,0.263
5,NCI-H1993,0.548
6,PC-14,0.176
7,LCLC-103H,0.382
8,NCI-H596,0.548
9,NCI-H2228,0.45
10,EMC-BAC-2,0.293
11,NCI-H2085,0.262
12,HCC-366,0.504
13,NCI-H1666,0.658
14,NCI-H647,0.101
15,LK-2,0.209
16,NCI-H2126,0.596
17,NCI-H2342,0.311
18,SK-MES-1,0.329
19,H3255,0.356
20,COR-L23,0.394
21,COR-L 105,0.325
22,LOU-NH91,0.562
23,ChaGo-K-1,0.529
24,NCI-H2170,0.504
25,NCI-H3122,0.833
26,HCC-78,0.326
27,NCI-H1792,0.698
28,NCI-H1563,0.439

# Same assay, conditions: first compound 0.03162 µM; main component drawn
row,Cell Line,relative viability
1,NCI-H522,0.716
2,NCI-H1623,0.557
3,NCI-H838,0.265
4,NCI-H1650,0.281
5,NCI-H1993,0.604
6,NCI-H2087,0.852
7,PC-14,0.126
8,LCLC-103H,0.448
9,NCI-H596,0.531
10,NCI-H2228,0.495
11,EMC-BAC-2,0.277
12,NCI-H2085,0.221
13,HCC-366,0.412
14,NCI-H1666,0.521
15,NCI-H647,0.0923
16,LK-2,0.193
17,NCI-H2126,0.619
18,NCI-H2342,0.335
19,SK-MES-1,0.316
20,H3255,0.448
21,COR-L23,0.276
22,COR-L 105,0.35
23,LOU-NH91,0.391
24,ChaGo-K-1,0.552
25,NCI-H2170,0.599
26,NCI-H3122,0.999
27,HCC-78,0.548
28,NCI-H1792,0.805
29,NCI-H1563,0.452

# Same assay, conditions: first compound 0.1 µM; main component drawn
row,Cell Line,relative viability
1,NCI-H522,0.518
2,NCI-H1623,0.521
3,NCI-H838,0.243
4,NCI-H1650,0.145
5,NCI-H1993,0.597
6,NCI-H2087,0.668
7,PC-14,0.0817
8,LCLC-103H,0.418
9,NCI-H596,0.395
10,NCI-H2228,0.618
11,EMC-BAC-2,0.259
12,NCI-H2085,0.231
13,HCC-366,0.444
14,NCI-H1666,0.565
15,NCI-H647,0.0574
16,LK-2,0.248
17,NCI-H2126,0.665
18,NCI-H2342,0.339
19,SK-MES-1,0.232
20,H3255,0.426
21,COR-L23,0.215
22,COR-L 105,0.307
23,LOU-NH91,0.448
24,ChaGo-K-1,0.533
25,NCI-H2170,0.638
26,NCI-H3122,0.749
27,HCC-78,0.366
28,NCI-H1792,1.01
29,NCI-H1563,0.438

# Same assay, conditions: first compound 0.3162 µM; main component drawn
row,Cell Line,relative viability
1,NCI-H522,0.43
2,NCI-H1623,0.347
3,NCI-H838,0.153
4,NCI-H1650,0.124
5,NCI-H1993,0.462
6,NCI-H2087,0.131
7,PC-14,0.0123
8,LCLC-103H,0.316
9,NCI-H596,0.24
10,NCI-H2228,0.342
11,EMC-BAC-2,0.144
12,NCI-H2085,0.212
13,HCC-366,0.0996
14,NCI-H1666,0.374
15,NCI-H647,0.039
16,LK-2,0.176
17,NCI-H2126,0.357
18,NCI-H2342,0.274
19,SK-MES-1,0.0893
20,H3255,0.332
21,COR-L23,0.0981
22,COR-L 105,0.238
23,LOU-NH91,0.306
24,ChaGo-K-1,0.246
25,NCI-H2170,0.285
26,NCI-H3122,0.366
27,HCC-78,0.287
28,NCI-H1792,0.439
29,NCI-H1563,0.401

# Same assay, conditions: first compound 1 µM; main component drawn
row,Cell Line,relative viability
1,NCI-H522,0.328
2,NCI-H1623,0.273
3,NCI-H838,0.175
4,NCI-H1650,0.128
5,NCI-H1993,0.464
6,NCI-H2087,0.13
7,PC-14,0.0118
8,LCLC-103H,0.214
9,NCI-H596,0.221
10,NCI-H2228,0.172
11,EMC-BAC-2,0.115
12,NCI-H2085,0.209
13,HCC-366,0.0443
14,NCI-H1666,0.317
15,NCI-H647,0.0343
16,LK-2,0.169
17,NCI-H2126,0.276
18,NCI-H2342,0.277
19,SK-MES-1,0.0963
20,H3255,0.327
21,COR-L23,0.0987
22,COR-L 105,0.215
23,LOU-NH91,0.251
24,ChaGo-K-1,0.264
25,NCI-H2170,0.389
26,NCI-H3122,0.206
27,HCC-78,0.285
28,NCI-H1792,0.283
29,NCI-H1563,0.47
